Data as given in patent US9271969B2, “Compounds as inhibitors of diacylglycerol O-acyltransferase type 1 enzyme” (KAINOS MEDICINE, INC., priority 2012, dated 2016).

Experiments:
mouse DGAT1 = mouse DGAT1 (Mus musculus (Mouse), UniProt Q9Z2A7); assay: Radiometric DGAT1 assay, mouse liver microsomes; format: biochemical; conditions: mouse liver microsomes having mouse DGAT1 activity
Source text: (§1) A second source of DGAT1 activity was human or mouse liver microsomes.

human DGAT1 [1] = target: T1, human DGAT1 (Homo sapiens (Human), UniProt O75907); assay: biochemical
T1 sequence (O75907 whole entry): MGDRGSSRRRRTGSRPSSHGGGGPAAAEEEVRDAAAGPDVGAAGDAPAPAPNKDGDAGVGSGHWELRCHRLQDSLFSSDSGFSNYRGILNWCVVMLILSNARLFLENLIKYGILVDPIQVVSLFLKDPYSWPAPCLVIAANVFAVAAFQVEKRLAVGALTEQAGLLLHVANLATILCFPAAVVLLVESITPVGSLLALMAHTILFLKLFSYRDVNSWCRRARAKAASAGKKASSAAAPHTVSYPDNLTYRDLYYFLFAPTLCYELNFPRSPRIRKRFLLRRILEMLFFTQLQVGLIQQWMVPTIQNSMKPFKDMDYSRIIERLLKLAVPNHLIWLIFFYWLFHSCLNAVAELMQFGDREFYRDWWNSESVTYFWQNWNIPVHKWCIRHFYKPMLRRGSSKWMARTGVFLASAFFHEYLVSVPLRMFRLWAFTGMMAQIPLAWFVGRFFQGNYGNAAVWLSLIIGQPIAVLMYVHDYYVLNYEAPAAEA
Procedure: For this assay, a source of DGAT1 was needed. In that regard, a commercially available plasmid for expression of DGAT1 (e.g., pCMV6-recombinant human DGAT1 plasmid) was transfected for 24 hours in Hep3B cells. After transfection of the plasmid, human DGAT-1 expression was analyzed by Western blot or RT-PCR using whole cell extracts. […] Human and mouse DGAT activity were determined as follows.
The plates were sealed, incubated overnight and counted the next morning on a liquid scintillation counter and luminometer.
DGAT1 catalyzes the transfer of the radiolabelled decanoyl group onto the sn-3 position of didecanoyl glycerol. The resultant radiolabeled tridecanoyl glycerol (tricaprin) preferentially binds to the hydrophobic coating on the phospholipid-coated radiometric assay plate. The proximity of the radiolabeled product to the solid scintillant incorporated into the bottom of the radiometric assay plate induced for release from the scintillant, which was measured in the liquid scintillation counter and luminometer.
IC50 values of the compounds were determined from concentration-dependent inhibition curves by using commercially available software.

human DGAT1 [2] = target: T1, human DGAT1; assay: Radiometric DGAT1 assay, human liver microsomes; format: biochemical; conditions: Source of human DGAT activity B = human liver microsomes
Source text: as §1

mouse DGAT1, sequence (Q9Z2A7 whole entry): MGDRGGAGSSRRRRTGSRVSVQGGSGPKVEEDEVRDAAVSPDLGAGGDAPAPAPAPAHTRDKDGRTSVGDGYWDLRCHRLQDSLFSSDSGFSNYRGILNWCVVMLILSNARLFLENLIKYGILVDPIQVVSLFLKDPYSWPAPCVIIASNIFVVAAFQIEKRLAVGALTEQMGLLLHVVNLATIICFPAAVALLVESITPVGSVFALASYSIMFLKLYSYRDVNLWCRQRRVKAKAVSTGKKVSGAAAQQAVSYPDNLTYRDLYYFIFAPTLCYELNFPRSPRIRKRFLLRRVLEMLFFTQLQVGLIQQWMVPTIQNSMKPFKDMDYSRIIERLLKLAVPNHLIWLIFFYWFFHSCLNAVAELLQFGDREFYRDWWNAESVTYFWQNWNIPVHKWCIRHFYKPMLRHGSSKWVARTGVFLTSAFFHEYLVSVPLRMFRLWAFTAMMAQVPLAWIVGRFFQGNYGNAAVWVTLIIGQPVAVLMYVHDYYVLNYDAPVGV

Structure (SMILES)	IC50 (mouse DGAT1) [nM]	IC50 (human DGAT1 [1]) [nM]	IC50 (human DGAT1 [2]) [nM]
O=C(O)C[C@H]1CC[C@H](c2ccc(-c3ccc4nc(C(=O)NCc5ccc(OC(F)(F)F)cc5)cn4c3)cc2)CC1 [Compound 1, 2-((1r,4r)-4-(4-(2-((4-(Trifluoromethoxy)benzyl)carbamoyl)imidazo[1,2-a]pyridin-6-yl)phenyl)cyclohexyl)acetic acid]	< 50	< 10	
O=C(O)C[C@H]1CC[C@H](c2ccc(-c3ccc4nc(C(=O)Nc5ccc(C(F)(F)F)cc5)cn4c3)cc2)CC1 [Compound 2, 2-((1r,4r)-4-(4-(2-((4-(Trifluoromethyl)phenyl)carbamoyl)imidazo[1,2-a]pyridin-6-yl)phenyl)-cyclohexyl)acetic acid]	< 200	< 10	
O=C(O)C[C@H]1CC[C@H](c2ccc(-c3ccc4nc(C(=O)Nc5ccc(OC(F)(F)F)cc5)cn4c3)cc2)CC1 [Compound 3, 2-((1r,4r)-4-(4-(2-((4-(Trifluoromethoxy)phenyl)carbamoyl)imidazo[1,2-a]pyridin-6-yl)-phenyl)cyclohexyl)acetic acid]	< 75	< 10	
O=C(O)C[C@H]1CC[C@H](c2ccc(-c3ccc4nc(C(=O)NCc5ccc(C(F)(F)F)cc5)cn4c3)cc2)CC1 [Compound 4, 2-((1r,4r)-4-(4-(2-((4-(Trifluoromethyl)benzyl)carbamoyl)imidazo[1,2-a]pyridin-6-yl)-phenyl)cyclohexyl)acetic acid]	< 75		< 150
O=C(O)C[C@H]1CC[C@H](c2ccc(-c3ccc4nc(C(=O)Nc5cccc(OC(F)(F)F)c5)cn4c3)cc2)CC1 [Compound 5, 2-((1r,4r)-4-(4-(2-((3-(Trifluoromethoxy)phenyl)carbamoyl)imidazo[1,2-a]pyridin-6-yl)-phenyl)cyclohexyl)acetic acid]	< 125		< 100
O=C(O)C[C@H]1CC[C@H](c2ccc(-c3ccc4nc(C(=O)Nc5cccc(C(F)(F)F)c5)cn4c3)cc2)CC1 [Compound 6, 2-((1r,4r)-4-(4-(2-((3-(Trifluoromethyl)phenyl)carbamoyl)imidazo[1,2-a]pyridin-6-yl)-phenyl)cyclohexyl)acetic acid]	< 150		< 75
O=C(O)C[C@H]1CC[C@H](c2ccc(-c3ccc4nc(C(=O)NCc5cccc(OC(F)(F)F)c5)cn4c3)cc2)CC1 [Compound 7, 2-((1r,4r)-4-(4-(2-((3-(Trifluoromethoxy)benzyl)carbamoyl)imidazo[1,2-a]pyridin-6-yl)-phenyl)cyclohexyl)acetic acid]	< 100		< 175
CC(C)(C)c1ccc(CNC(=O)c2cn3cc(-c4ccc([C@H]5CC[C@H](CC(=O)O)CC5)cc4)ccc3n2)cc1 [Compound 8, 2-((1r,4r)-4-(4-(2-((4-(tert-Butyl)benzyl)carbamoyl)imidazo[1,2-a]pyridin-6-yl)phenyl)-cyclohexyl)acetic acid]	< 50		< 125
O=C(O)C[C@H]1CC[C@H](c2ccc(-c3ccc4nc(C(=O)NCc5cc(OC(F)(F)F)ccc5F)cn4c3)cc2)CC1 [Compound 9, 2-((1r,4r)-4-(4-(2-((2-Fluoro-5-(trifluoromethoxy)benzyl)carbamoyl)imidazo[1,2-a]pyridin-6-yl)phenyl)cyclohexyl)acetic acid]	< 50	< 50	
O=C(O)C[C@H]1CC[C@H](c2ccc(-c3ccc4nc(C(=O)NCc5ccc(F)c(OC(F)(F)F)c5)cn4c3)cc2)CC1 [Compound 10, 2-((1r,4r)-4-(4-(2-((4-Fluoro-3-(trifluoromethoxy)benzyl)carbamoyl)imidazo[1,2-a]pyridin-6-yl)phenyl)cyclohexyl)acetic acid]	< 75	< 75	
COc1ccc(CNC(=O)c2cn3cc(-c4ccc([C@H]5CC[C@H](CC(=O)O)CC5)cc4)ccc3n2)cc1OC [Compound 23, 2-((1r,4r)-4-(4-(2-((3,4-Dimethoxybenzyl)carbamoyl)imidazo[1,2-a]pyridin-6-yl)phenyl)-cyclohexyl)acetic acid]	< 25		< 25
O=C(O)C[C@H]1CC[C@H](c2ccc(-c3ccc4nc(C(=O)NCc5ccccc5)cn4c3)cc2)CC1 [Compound 31, 2-((1r,4r)-4-(4-(2-(Benzylcarbamoyl)imidazo[1,2-a]pyridin-6-yl)phenyl)cyclohexyl)acetic acid]	< 100		< 50
COc1ccccc1CNC(=O)c1cn2cc(-c3ccc([C@H]4CC[C@H](CC(=O)O)CC4)cc3)ccc2n1 [Compound 41, 2-((1r,4r)-4-(4-(2-((2-Methoxybenzyl)carbamoyl)imidazo[1,2-a]pyridin-6-yl)phenyl)cyclohexyl)acetic acid]	< 75		< 25
O=C(O)CC1CCC(c2ccc(-c3ccc4nc(C(=O)NCc5c(F)cc(Cl)cc5F)cn4c3)cc2)CC1 (centres unmarked) [Compound 42, 2-((1s,4s)-4-(4-(2-((4-chloro-2,6-difluorobenzyl)carbamoyl)imidazo[1,2-a]pyridin-6-yl)phenyl)cyclohexyl)acetic acid]	< 10		< 10
Cc1cc(Cl)cc(Cl)c1CNC(=O)c1cn2cc(-c3ccc(C4CCC(CC(=O)O)CC4)cc3)ccc2n1 (centres unmarked) [Compound 43, 2-((1s,4s)-4-(4-(2-((2,4-Dichloro-6-methylbenzyl)carbamoyl)imidazo[1,2-a]pyridin-6-yl)phenyl)cyclohexyl)acetic acid]	< 10		< 10
Cc1cc(C)c(CNC(=O)c2cn3cc(-c4ccc(C5CCC(CC(=O)O)CC5)cc4)ccc3n2)c(C)c1 (centres unmarked) [Compound 44, 2-((1s,4s)-4-(4-(2-((2,4,6-Trimethylbenzyl)carbamoyl)imidazo[1,2-a]pyridin-6-yl)phenyl)cyclohexyl)acetic acid]	< 10		< 25
Cc1ccc(CNC(=O)c2nc3ccc(-c4ccc(C5CCC(CC(=O)O)CC5)cc4)cn3n2)cc1 (centres unmarked) [Compound 45, 2-((1s,4s)-4-(4-(2-((4-Methylbenzyl)carbamoyl)-[1,2,4]triazolo[1,5-a]pyridin-6-yl)phenyl)cyclohexyl)acetic acid]	< 50		< 50
CC(C)(C)c1ccc(CNC(=O)c2cn3cc(-c4ccc([C@H]5CC[C@H](CC(=O)O)CC5)cc4)sc3n2)cc1 [Compound 46, 2-((1r,4r)-4-(4-(6-((4-(tert-Butyl)benzyl)carbamoyl)imidazo[2,1-b]thiazol-2-yl)phenyl)-cyclohexyl)acetic acid]	< 50		< 1
O=C(O)C[C@H]1CC[C@H](c2ccc(-c3cn4cc(C(=O)NCc5cccc(OC(F)(F)F)c5)nc4s3)cc2)CC1 [Compound 50, 2-((1r,4r)-4-(4-(6-((3-(Trifluoromethoxy)benzyl)carbamoyl)imidazo[2,1-b]thiazol-2-yl)-phenyl)cyclohexyl)acetic acid]	< 25		< 50
O=C(O)C[C@H]1CC[C@H](c2ccc(-c3cn4cc(C(=O)NCc5cc(OC(F)(F)F)ccc5F)nc4s3)cc2)CC1 [Compound 51, 2-((1r,4r)-4-(4-(6-((2-Fluoro-5-(trifluoromethoxy)benzyl)carbamoyl)imidazo[2,1-b]thiazol-2-yl)phenyl)cyclohexyl)acetic acid]	< 50		< 50
O=C(O)C[C@H]1CC[C@H](c2ccc(-c3cn4cc(C(=O)Nc5cccc(OC(F)(F)F)c5)nc4s3)cc2)CC1 [Compound 52, 2-((1r,4r)-4-(4-(6-((3-(Trifluoromethoxy)phenyl)carbamoyl)imidazo[2,1-b]thiazol-2-yl)-phenyl)cyclohexyl)acetic acid]	< 10		< 10
CC(C)c1ccc(CNC(=O)c2cn3cc(-c4ccc([C@H]5CC[C@H](CC(=O)O)CC5)cc4)sc3n2)cc1 [Compound 53, 2-((1r,4r)-4-(4-(6-((4-Isopropylbenzyl)carbamoyl)imidazo[2,1-b]thiazol-2-yl)phenyl)cyclohexyl)acetic acid]	< 100		< 25
O=C(O)C[C@H]1CC[C@H](c2ccc(-c3cn4cc(C(=O)NC5(c6cc(F)ccc6F)CC5)nc4s3)cc2)CC1 [Compound 54, 2-((1r,4r)-4-(4-(6-((1-(2,5-Difluorophenyl)cyclopropyl)carbamoyl)imidazo[2,1-b]thiazol-2-yl)phenyl)cyclohexyl)acetic acid]	< 25		< 10
COc1ccc(OC(F)(F)F)cc1CNC(=O)c1cn2cc(-c3ccc([C@H]4CC[C@H](CC(=O)O)CC4)cc3)sc2n1 [Compound 55, 2-((1r,4r)-4-(4-(6-((2-Methoxy-5-(trifluoromethoxy)benzyl)carbamoyl)imidazo[2,1-b]-thiazol-2-yl)phenyl)cyclohexyl)acetic acid]	< 25		< 10
O=C(O)C[C@H]1CC[C@H](c2ccc(-c3cn4cc(C(=O)NCc5ccc(OC(F)(F)F)cc5)nc4s3)cc2)CC1 [Compound 56, 2-((1r,4r)-4-(4-(6-((4-(Trifluoromethoxy)benzyl)carbamoyl)imidazo[2,1-b]thiazol-2-yl)-phenyl)cyclohexyl)acetic acid]	< 50		< 10
CC(C)(C(=O)O)[C@H]1CC[C@H](c2ccc(-c3ccc4nc(C(=O)NCc5ccccc5)cn4c3)cc2)CC1 [Compound 65, 2-((1r,4r)-4-(4-(2-(Benzylcarbamoyl)imidazo[1,2-a]pyridin-6-yl)phenyl)cyclohexyl)-2-methylpropanoic acid]	< 125		< 10
CC(C)(C(=O)O)[C@H]1CC[C@H](c2ccc(-c3ccc4nc(C(=O)NCc5ccc(OC(F)(F)F)cc5)cn4c3)cc2)CC1 [Compound 66, 2-Methyl-2-((1r,4r)-4-(4-(2-((4-(trifluoromethoxy)benzyl)carbamoyl)imidazo[1,2-a]pyridin-6-yl)phenyl)cyclohexyl)propanoic acid]	< 50		< 10
Cc1cccc(Cl)c1CNC(=O)c1cn2cc(-c3ccc(C4CCC(C(C)(C)C(=O)O)CC4)cc3)ccc2n1 (centres unmarked) [Compound 67, 2-((1s,4s)-4-(4-(2-((2-Chloro-6-methylbenzyl)carbamoyl)imidazo[1,2-a]pyridin-6-yl)phenyl)cyclohexyl)-2-methylpropanoic acid]	< 50		< 25
